{
  "source": "patent US20250230193A1",
  "about": "“CYCLIC COMPOUND HAVING SELECTIVE KRAS INHIBITORY EFFECT ON HRAS AND NRAS” (CHUGAI SEIYAKU KABUSHIKI KAISHA, priority 2022, published 2025)",
  "key": {"[1]": {"biological_target": "GDP-bound NRAS wild-type protein (Homo sapiens, UniProt P01111)", "sequence (P01111 whole entry)": "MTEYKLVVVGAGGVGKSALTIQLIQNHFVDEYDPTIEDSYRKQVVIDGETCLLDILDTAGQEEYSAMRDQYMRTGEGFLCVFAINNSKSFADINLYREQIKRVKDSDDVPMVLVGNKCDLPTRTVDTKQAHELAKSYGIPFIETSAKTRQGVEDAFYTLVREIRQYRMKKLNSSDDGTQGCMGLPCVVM", "test": "Binding to NRAS by surface plasmon resonance (SPR), Single Cycle Kinetics"}, "[2]": {"biological_target": "GDP-bound HRAS wild-type protein (Homo sapiens, UniProt P01112)", "sequence (P01112 whole entry)": "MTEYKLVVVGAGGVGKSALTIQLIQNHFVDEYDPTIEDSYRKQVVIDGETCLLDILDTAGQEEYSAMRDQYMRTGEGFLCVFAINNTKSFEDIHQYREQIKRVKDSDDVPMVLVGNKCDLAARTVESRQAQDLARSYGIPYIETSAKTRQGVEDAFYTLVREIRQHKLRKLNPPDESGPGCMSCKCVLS", "test": "Binding to HRAS by surface plasmon resonance (SPR), Single Cycle Kinetics"}},
  "note": "Where a SMILES comes first, the peptide text is derived from it. Bridges are numbered along the chain shown (N, C = ends). [ ]: non-standard residue; d: D form. The star is where a group is joined. hPhe(3-Cl-4-CF3) = N[C@@H](CCc1ccc(C(F)(F)F)c(Cl)c1)C(=O)O; NMePhe(4-CF3) = CN[C@@H](Cc1ccc(C(F)(F)F)cc1)C(=O)O; NMeGly(cPent) = CN[C@H](C(=O)O)C1CCCC1; NMeD = CN[C@@H](CC(=O)O)C(=O)O; NMeL = CN[C@@H](CC(C)C)C(=O)O; Morpholide = C1CN(*)CCO1; Ac5c = NC1(C(=O)O)CCCC1; Sar = CNCC(=O)O",
  "data": [
    {"smiles": "CCO[C@@H]1C[C@H]2C(=O)NC3(CC(C)(C)C3)C(=O)N(C)[C@@H](C3CCCC3)C(=O)N(C)[C@H](C(=O)N(C)C)CC(=O)N(C)[C@@H](CC(C)C)C(=O)N[C@@H]([C@@H](C)CC)C(=O)N(C)CC(=O)N(C)[C@H]3C/C=C\\CCN(C3=O)[C@@H](Cc3ccc(C(F)(F)F)cc3)C(=O)N(C)CC(=O)N[C@@H](CCc3cc(F)c(Cl)c(F)c3)C(=O)N2C1", "note": "[PP1761]", "values": [
      {"measurement": "NRAS/KRAS (ratio of KD value for NRAS to KD value for KRAS)", "setting": "[1]; KD ratio, GDP-bound NRAS wild-type vs GDP-bound KRAS wild-type, SPR", "value": "A (a compound having 10 or more and less than 20 is denoted as A)"},
      {"measurement": "HRAS/KRAS (ratio of KD value for HRAS to KD value for KRAS)", "setting": "[2]; KD ratio, GDP-bound HRAS wild-type vs GDP-bound KRAS wild-type, SPR", "value": "A (a compound having 10 or more and less than 20 is denoted as A)"}
    ]},
    {"smiles": "CC[C@H](C)[C@@H]1NC(=O)[C@H](CC(C)C)N(C)C(=O)C[C@@H](C(=O)N(C)C)N(C)C(=O)[C@H](C2CCCC2)N(C)C(=O)C2(CCCC2)NC(=O)[C@@H]2CCCN2C(=O)[C@H](CCc2cc(F)c(C(F)(F)F)c(F)c2)NC(=O)CN(C)C(=O)[C@H](Cc2ccc(C(F)(F)F)cc2)N2CCCC[C@@H](C2=O)N(C)C(=O)CN(C)C1=O", "note": "[PP0569]", "values": [
      {"measurement": "NRAS/KRAS (ratio of KD value with respect to GDP-bound NRAS wild-type protein to KD value with respect to KRAS)", "setting": "[1]; KD ratio NRAS/KRAS, SPR", "value": "C (A compound having a KD ratio of 0.1 or more and less than 3 is denoted as C)"},
      {"measurement": "HRAS/KRAS (ratio of KD value with respect to GDP-bound HRAS wild-type protein to KD value with respect to KRAS)", "setting": "[2]; KD ratio HRAS/KRAS, SPR", "value": "B (a compound having 3 or more and less than 10 is denoted as B)"}
    ]},
    {"smiles": "CCO[C@H](C)[C@@H]1NC(=O)[C@H](CC(C)C)N(C)C(=O)C[C@@H](C(=O)N(C)C)N(C)C(=O)[C@H](C2CCCC2)N(C)C(=O)C2(CC(C)(C)C2)NC(=O)[C@@H]2C[C@H](C)CN2C(=O)[C@H](CCc2ccc(C(F)(F)F)c(OC)c2)NC(=O)CN(C)C(=O)[C@H](Cc2ccc(C)cc2)N2CC/C=C\\C[C@@H](C2=O)N(C)C(=O)CN(C)C1=O", "note": "[PP2412]", "values": [
      {"measurement": "NRAS/KRAS (ratio of KD value with respect to NRAS to KD value with respect to KRAS)", "setting": "[1]; SPR, GDP-bound NRAS wild-type vs GDP-bound KRAS wild-type", "value": "A (a compound having 10 or more and less than 20 is denoted as A)"},
      {"measurement": "HRAS/KRAS (ratio of KD value with respect to HRAS to KD value with respect to KRAS)", "setting": "[2]; SPR, GDP-bound HRAS wild-type vs GDP-bound KRAS wild-type", "value": "B (a compound having 3 or more and less than 10 is denoted as B)"}
    ]},
    {"smiles": "CC[C@H](C)[C@@H]1NC(=O)[C@H](C)N(C)C(=O)C[C@@H](C(=O)N(C)C)N(C)C(=O)[C@H](C2CCCC2)N(C)C(=O)C2(CCC2)NC(=O)[C@@H]2CCCN2C(=O)[C@H](CCc2cc(F)c(C(F)(F)F)c(F)c2)NC(=O)CN(C)C(=O)[C@H](Cc2ccc(C(F)(F)F)cc2)N2CCCC[C@@H](C2=O)N(C)C(=O)CN(C)C1=O", "note": "[PP0581]", "values": [
      {"measurement": "NRAS/KRAS (ratio of KD value with respect to GDP-bound NRAS wild-type protein to KD value with respect to KRAS)", "setting": "[1]; KD ratio NRAS/KRAS, SPR", "value": "C (A compound having a KD ratio of 0.1 or more and less than 3 is denoted as C)"},
      {"measurement": "HRAS/KRAS (ratio of KD value with respect to GDP-bound HRAS wild-type protein to KD value with respect to KRAS)", "setting": "[2]; KD ratio HRAS/KRAS, SPR", "value": "B (a compound having 3 or more and less than 10 is denoted as B)"}
    ]},
    {"smiles": "CCC[C@H]1C(=O)N[C@@H](C2CCCC2)C(=O)N(C)CC(=O)N(C)[C@H]2C/C=C\\CCN(C2=O)[C@@H](Cc2ccc(C)cc2)C(=O)N(C)CC(=O)N[C@@H](CCc2ccc(C(F)(F)F)c(OC)c2)C(=O)N2C[C@H](OCC)C[C@H]2C(=O)NC2(CC(C)(C)C2)C(=O)N(C)[C@@H](C2CCCC2)C(=O)N(C)[C@H](C(=O)N(C)C)CC(=O)N1C", "note": "[PP2992]", "values": [
      {"measurement": "NRAS/KRAS (ratio of KD value with respect to GDP-bound NRAS wild-type protein to KD value with respect to KRAS)", "setting": "[1]; KD ratio NRAS/KRAS, SPR, GDP-bound wild-type proteins", "value": "AA (a compound having 20 or more is denoted as AA)"},
      {"measurement": "HRAS/KRAS (ratio of KD value with respect to GDP-bound HRAS wild-type protein to KD value with respect to KRAS)", "setting": "[2]; KD ratio HRAS/KRAS, SPR, GDP-bound wild-type proteins", "value": "A (a compound having 10 or more and less than 20 is denoted as A)"}
    ]},
    {"smiles": "CCC[C@H]1C(=O)N[C@@H](CC(C)C)C(=O)N2C[C@@H](OC)C[C@H]2C(=O)N(C)[C@H]2C/C=C\\CCN(C2=O)[C@@H](Cc2ccc(C)cc2)C(=O)N(C)CC(=O)N[C@@H](CCc2ccc(C(F)(F)F)c(Cl)c2)C(=O)N2C[C@H](OCC)C[C@H]2C(=O)NC2(CC(C)(C)C2)C(=O)N(C)[C@@H](C2CCCC2)C(=O)N(C)[C@H](C(=O)N(C)C)CC(=O)N1C", "note": "[PP2555]", "values": [
      {"measurement": "NRAS/KRAS (ratio of KD value with respect to GDP-bound NRAS wild-type protein to KD value with respect to KRAS)", "setting": "[1]; KD ratio NRAS/KRAS, class symbols", "value": "A (a compound having 10 or more and less than 20 is denoted as A)"},
      {"measurement": "HRAS/KRAS (ratio of KD value with respect to GDP-bound HRAS wild-type protein to KD value with respect to KRAS)", "setting": "[2]; KD ratio HRAS/KRAS, class symbols", "value": "B (a compound having 3 or more and less than 10 is denoted as B)"}
    ]},
    {"smiles": "CC[C@H](C)[C@@H]1NC(=O)[C@H](CC(C)C)N(C)C(=O)C[C@@H](C(=O)N2CCOCC2)N(C)C(=O)[C@H](C2CCCC2)N(C)C(=O)C2(CCCC2)NC(=O)[C@@H]2CCCN2C(=O)[C@H](CCc2ccc(C(F)(F)F)c(Cl)c2)NC(=O)CN(C)C(=O)[C@H](Cc2ccc(C(F)(F)F)cc2)N(C)C(=O)CN(C)C(=O)CN(C)C1=O", "note": "[PP0076] ([NMeL]I[Sar][Sar][NMePhe(4-CF3)][Sar][hPhe(3-Cl-4-CF3)]P[Ac5c][NMeGly(cPent)][NMeD]-Morpholide; lactam N-11)", "values": [
      {"measurement": "NRAS/KRAS (ratio of KD for GDP-bound NRAS wild-type to KD for KRAS)", "setting": "[1]; KD ratio NRAS/KRAS, SPR", "value": "C (A compound having a KD ratio of 0.1 or more and less than 3 is denoted as C)"},
      {"measurement": "HRAS/KRAS (ratio of KD for GDP-bound HRAS wild-type to KD for KRAS)", "setting": "[2]; KD ratio HRAS/KRAS, SPR", "value": "C (A compound having a KD ratio of 0.1 or more and less than 3 is denoted as C)"}
    ]}
  ]
}
